In PMC6696208, “Antityrosinase, Antioxidant, and Cytotoxic Activities of Phytochemical Constituents from Manilkara zapota L. Bark” (Molecules, 2019):
“And” between values parts separate entries of the source, which are not always exact repeats. Identical values can stand only once. Like-named read-outs stand apart in the source and are kept apart here. Marks after values point to notes of the source that are not given here.

Key:
[1] = system: HepG2 liver carcinoma cell line; test: MTT cytotoxicity assay, HepG2; format: cell-based; conditions: Homo sapiens, 72 h
Protocol: (§1) Cytotoxic activity was evaluated in vitro using the microtitration colorimetric method of MTT reduction. In this study, five human carcinoma cell lines were used, including BT474 (ATCC® HTB20^TM), Chago-K1 (National Cancer Institute, Thailand), HepG2 (ATCC® HB8065^TM), KATO-III (ATCC® HTB103^TM), and SW620 (ATCC® CCL227^TM). Additionally, human diploid lung fibroblast (WI-38, ATCC® CCL75^TM) was used as the normal cell line for comparison with the carcinoma cell lines. The culturing of these cell lines was derived in complete medium, including Roswell Park Memorial Institute medium (RPMI-1640), fetal bovine serum (5%, v/v), 25 mM of 4-(2-hydroxyethyl)-1-piperazineethanesulfonic acid (HEPES), sodium bicarbonate (0.25%, w/v), and kanamycin (100 μg/mL). Doxorubicin was used as a positive control. Each well plate contained 198 μL of culture medium of cell lines and was incubated with 5% CO2 atmosphere for 24 h at 37 °C. Then, the culture cells were treated with 2 μL/well of the sample and incubated for 72 h at 37 °C. MTT solution (2 μL, 5 mg/mL in normal saline) was added into each well, and the plates were incubated for an additional 4 h. The supernatant was aspirated out. After that, a mixture of 25 μL of 0.1 M glycine and 150 μL of DMSO was added. The plates were shaken to dissolve the purple-blue crystal of formazan. Then, the absorbance was determined by a microplate reader at 540 nm. The relative cell survival as a percentage of the control (DMSO), which was set at 100%, was calculated using the following formula:(5) The cell survival (%)=[As/Ac] × 100. where As is the absorbance of the test sample and Ac is the absorbance of […].

[2] = system: SW620 colon carcinoma cell line; test: MTT cytotoxicity assay, SW620; format: cell-based; conditions: Homo sapiens, SW-620, 72 h
Protocol: as §1

[3] = system: BT474 breast carcinoma cell line; test: MTT cytotoxicity assay, BT474; format: cell-based; conditions: Homo sapiens, BT-474, 72 h
Protocol: as §1

[4] = system: Chago-K1 lung bronchus carcinoma cell line; test: MTT cytotoxicity assay, Chago-K1; format: cell-based; conditions: Homo sapiens, ChaGo-K-1, 72 h
Protocol: as §1

Mushroom tyrosinase [5] = molecular target: T1, Mushroom tyrosinase (Agaricus bisporus, UniProt C7FF04); test: Kinetic analysis of tyrosinase inhibition, diphenolase activity (Lineweaver-Burk plots); format: biochemical; conditions: L-DOPA 0-200 μM, samples 20-1000 μM
T1 sequence (G1K3P4 entry or part of it): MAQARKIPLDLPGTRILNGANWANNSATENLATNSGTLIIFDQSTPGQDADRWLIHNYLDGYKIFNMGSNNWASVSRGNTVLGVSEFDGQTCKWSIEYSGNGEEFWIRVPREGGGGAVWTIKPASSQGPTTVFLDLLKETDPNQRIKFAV
T1 sequence (C7FF04 1-392): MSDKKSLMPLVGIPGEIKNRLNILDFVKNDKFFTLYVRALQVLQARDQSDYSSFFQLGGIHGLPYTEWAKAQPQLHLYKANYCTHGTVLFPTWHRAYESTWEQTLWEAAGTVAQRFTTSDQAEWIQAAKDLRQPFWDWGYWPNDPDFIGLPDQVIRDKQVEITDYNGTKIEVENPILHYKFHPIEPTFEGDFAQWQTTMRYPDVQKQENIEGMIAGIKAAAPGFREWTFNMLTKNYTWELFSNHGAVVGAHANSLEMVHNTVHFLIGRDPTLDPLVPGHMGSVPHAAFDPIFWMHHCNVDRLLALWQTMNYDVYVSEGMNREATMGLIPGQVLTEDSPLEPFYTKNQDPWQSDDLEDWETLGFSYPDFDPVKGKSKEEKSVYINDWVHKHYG
Protocol: (§2) The kinetic analysis of tyrosinase inhibitory activity was performed with respect to both monophenolase and diphenolase activities. The concentration ranges of the samples were 20–1000 μM. Both L-tyrosine and L-DOPA were concentrated at 0, 25, 50, 100, and 200 μM, respectively. The inhibitory kinetics of the samples were analyzed using Lineweaver–Burk plots.

[6] = FRAP assay (ferric reducing antioxidant power); conditions: FRAP value, expressed as ferrous sulphate equivalent, mean ± SD of three replicates
Protocol: FRAP assay was conducted using a modified version of a method originally reported in an earlier study. The FRAP reagent contained 25 mL of 0.3 M acetate buffer (pH 3.6), 2.5 mL of 20 mM ferric chloride solution, and 2.5 mL of 10 mM 2,4,6-tris(2-pyridyl)-1,3,5-triazine and was brought to a final volume of 50 mL using 40 mM HCl solution. Then, the FRAP reagent was put into a water bath for 30 min at 50 °C. Next, 600 μL of FRAP reagent was added to 25 μL of the sample (100 mg/mL). The absorbance was recorded at 595 nm after 4 min of incubation using a spectrophotometer. Trolox was used as a positive control. The ferric reducing capacity was expressed as a ferrous sulphate equivalent.

[7] = ABTS radical scavenging assay; conditions: mean ± SD of three replicates
Protocol: The ABTS radical scavenging capacity was determined using a modified version of a previously described procedure. The stock solution included 100 mL of 7.0 mM ABTS solution in methanol and 100 mL of 2.4 mM aqueous solution of potassium persulfate. Then, the reaction mixture was left in the dark for 14 h at 37 °C. The solution of 1 mL of ABTS solution was diluted with 60 mL of absolute ethanol to determine an absorbance of 0.700 ± 0.001 units at 734 nm using a spectrophotometer. Next, 500 µL of the sample (100 mg/mL) was reacted with 500 µL of ABTS solution and the absorbance was measured at 734 nm after 7 min of incubation using a spectrophotometer. The results were compared with Trolox as a standard, and the percentage of scavenging activity was calculated according to the following equation:(4) ABTS radical scavenging activity (%)=[(Ac−As)/Ac]×100. where Ac is the absorbance of ABTS radicals with ethanol and As is the absorbance of ABTS radicals with the test sample or positive control.

Mushroom tyrosinase [8] = molecular target: T1, Mushroom tyrosinase; test: Kinetic analysis of tyrosinase inhibition, monophenolase activity (Lineweaver-Burk plots); format: biochemical; conditions: L-tyrosine 0-200 μM, samples 20-1000 μM
Protocol: as §2

[9] = system: WI-38 human diploid lung fibroblast; test: MTT cytotoxicity assay, WI-38 normal cell line; format: cell-based; conditions: 72 h
Protocol: as §1

[10] = system: KATO-III gastric carcinoma cell line; test: MTT cytotoxicity assay, KATO-III; format: cell-based; conditions: Homo sapiens, 72 h
Protocol: as §1

[11] = DPPH radical scavenging assay; conditions: mean ± SD of three replicates
Protocol: The DPPH radical scavenging activity was determined by a modified method based on a previously described procedure. Briefly, a solution containing 50 µL of sample (100 mg/mL) was dissolved in DMSO/ethanol (1:4 v/v) and 150 µL of 0.05 M DPPH solution in methanol. Then, the reaction mixture was mixed and was incubated in the dark for 30 min at 37 °C. The absorbance of the reaction mixture was measured at 517 nm. Trolox was used as a positive control. The DPPH scavenging effect was calculated according to the following equation:(3) DPPH radical scavenging activity (%)=[1−(As−Ab)/Ad]× 100. where As is the absorbance of the sample mixed with DPPH solution, Ab is the absorbance of the sample without DPPH solution, and Ad is the absorbance of DPPH solution without the sample.

[12] = set-up: method as in PMID 30364385; conditions: read-out: IC50 for ABTS; cited from earlier work
[13] = set-up: method as in PMID 30364385; conditions: read-out: IC50 for DPPH; cited from earlier work
tyrosinase = molecular target: tyrosinase; set-up: method as in PMID 30364385; conditions: L-DOPA as substrate; read-out: IC50, antityrosinase; cited from earlier work

Type of inhibition, diphenolase activity (Mushroom tyrosinase [5]) | IC50 [7] | Type of inhibition, monophenolase activity (Mushroom tyrosinase [8]) | IC50 [11] | SMILES | IC50 [1] | IC50 [2] | IC50 [3] | IC50 [4] | FRAP [6] | IC50 [9] | IC50 [10] | FRAP ([6]; listed as (+)-dihydrokaempferol (4)) | IC50 [12] | IC50 [13] | IC50 (tyrosinase) | melting point | FRAP ([6]; listed as 6-hydroxyflavanone (3))
uncompetitive | 630.84 ± 0.54 µM | noncompetitive | 16.3 ± 0.33 µM | CC1(C)CC[C@]2(C)CC=C3[C@]4(C)CC[C@H]5C(C)(C)[C@@H](O)CC[C@]5(C)[C@H]4CC[C@@]3(C)[C@@H]2C1 [Taraxerol (6), taraxerol] | > 235 µM | > 235 µM | > 235 µM | > 235 µM | 1.46 ± 0.11 ^a μM | > 235 µM | > 235 µM |  |  |  |  |  | 
competitive | 214.8 ± 0.51 µM | competitive | 2.21 ± 0.77 µM | O=C1c2c(O)cc(O)cc2O[C@H](c2ccc(O)cc2)[C@H]1O [(+)-Dihydrokaempferol (4), (+)-dihydrokaempferol] | 13.7 ± 0.38 µM | 41.1 ± 1.08 µM | 11.7 ± 0.42 µM | 12.3 ± 0.73 µM | 6.23 ± 0.10 ^d μM | > 347 µM | 39.79 ± 0.38 µM | 6.23 ± 0.10 µM |  |  |  |  | 
 |  |  |  | COc1cccc2c1C(=O)c1c(O)c3c(c(O)c1C2=O)C[C@@](O)(C(=O)CO)C[C@@H]3O[C@H]1C[C@H](N)[C@H](O)[C@H](C)O1 [Doxorubicin, reference compound] | 2.7 ± 0.83 µM | 1.82 ± 0.39 µM | 1.21 ± 0.2 µM | 1.58 ± 0.4 µM |  | > 184 µM | 1.78 ± 0.83 µM |  |  |  |  |  | 
 |  |  |  | O=C1c2c(O)cc(O)cc2O[C@H](c2cc(O)c(O)c(O)c2)[C@H]1O [dihydromyricetin] |  |  |  |  |  |  |  |  | 3.41 µM | 12.4 µM | 3.33 µM |  | 
noncompetitive | 520.22 ± 0.3 µM | noncompetitive | 77.31 ± 0.6 µM | CO[C@H]1CC[C@@]2(C)C(CC[C@@]3(C)C4=CC[C@]5(C)CCC(C)(C)CC5[C@@]4(C)CCC23)C1(C)C (stereo partly drawn) [Taraxerol methyl ether (1), taraxerol methyl ether] | > 227 µM | > 227 µM | 185 ± 1.61 µM | > 227 µM | 1.31 ± 0.16 ^a μM | > 227 µM | > 227 µM |  |  |  |  | 278 to 280 °C | 
 | 188.4 ± 0.43 µM |  | 1.92 ± 0.22 µM | Cc1c(C)c2c(c(C)c1O)CCC(C)(C(=O)O)O2 (stereo not drawn) [Trolox, reference compound] |  |  |  |  | 6.10 ± 0.28 μM and 6.10 ± 0.28 ^d μM |  |  |  |  |  |  |  | 
mixed | 334.8 ± 0.99 µM | mixed | 10.2 ± 0.4 µM | CC1(C)CC[C@]2(C)CC=C3[C@]4(C)CC[C@H]5C(C)(C)C(=O)CC[C@]5(C)[C@H]4CC[C@@]3(C)[C@@H]2C1 [Taraxerone (7), taraxerone] | 20.4 ± 1.43 µM | > 234 µM | 19.2 ± 0.4 µM | 26.8 ± 0.97 µM | 1.12 ± 0.13 ^a μM | > 234 µM | 26.5 ± 0.57 µM |  |  |  |  |  | 
competitive | 225.5 ± 0.95 µM | competitive | 3.21 ± 0.7 µM | O=C1CC(c2ccccc2)Oc2ccc(O)cc21 (stereo not drawn) [6-Hydroxyflavanone (3), 6-hydroxyflavanone] | 65.8 ± 2.37 µM | 82.8 ± 1.33 µM | 86.16 ± 0.45 µM | 57.7 ± 1.08 µM | 4.12 ± 0.12 ^c μM | > 416 µM | 88.8 ± 3.7 µM |  |  |  |  |  | 4.12 ± 0.12 µM

SMILES | Type of inhibition, diphenolase activity (Mushroom tyrosinase [5]) | IC50 [7] | Type of inhibition, monophenolase activity (Mushroom tyrosinase [8]) | IC50 [11] | IC50 [1] | IC50 [2] | IC50 [3] | IC50 [4] | FRAP [6] | IC50 [9] | IC50 [10] | FRAP ([6]; listed as (+)-dihydrokaempferol (4)) | IC50 [12] | IC50 [13] | IC50 (tyrosinase) | melting point | FRAP ([6]; listed as 6-hydroxyflavanone (3))
C=C(C)[C@@H]1CC[C@]2(C)CC[C@]3(C)C(CCC4[C@@]5(C)CCC(OC(C)=O)C(C)(C)C5CC[C@]43C)C12 (stereo partly drawn) [Lupeol acetate (8), lupeol acetate] | uncompetitive | 669.62 ± 0.42 µM | mixed | 87.1 ± 0.31 µM | > 213 µM | 182.7 ± 1.51 µM | 60.2 ± 0.9 µM | 199.9 ± 0.3 µM | 1.28 ± 0.30 ^a μM | > 213 µM | 136.7 ± 0.66 µM |  |  |  |  | 210 to 212 °C | 
O=C(O)c1ccc(O)c(O)c1 [3,4-Dihydroxybenzoic acid (5), 3,4-dihydroxybenzoic acid] | competitive | 290.1 ± 0.95 µM | competitive | 4.71 ± 0.1 µM | 364.7 ± 2.27 µM | 591.4 ± 0.71 µM | 85.2 ± 3.96 µM | 79.2 ± 4.02 µM | 3.00 ± 0.40 ^b μM | > 649 µM | 507.5 ± 4.61 µM |  |  |  |  |  | 
